In one assay the target is T1, BCAT1 (Homo sapiens, UniProt P54687).
T1 sequence (P54687 1-386): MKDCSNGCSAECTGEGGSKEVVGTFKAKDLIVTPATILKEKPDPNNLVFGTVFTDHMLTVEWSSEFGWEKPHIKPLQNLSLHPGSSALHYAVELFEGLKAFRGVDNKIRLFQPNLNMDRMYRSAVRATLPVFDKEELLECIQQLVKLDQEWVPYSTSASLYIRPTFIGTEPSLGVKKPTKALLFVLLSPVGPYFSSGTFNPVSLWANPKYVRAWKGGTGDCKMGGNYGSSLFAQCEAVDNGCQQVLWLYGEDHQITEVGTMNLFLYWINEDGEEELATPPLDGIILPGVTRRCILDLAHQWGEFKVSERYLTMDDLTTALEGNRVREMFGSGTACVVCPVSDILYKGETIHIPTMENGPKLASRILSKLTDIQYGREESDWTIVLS
Put plainly: BCAT1 enzyme inhibition (human), Glutamate Glo luminescence. It is filed as biochemical. The method in brief:
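BCAT1 enzyme (0.06 ug/ml final) was preincubated with compound (3-0.0001 μM, 0.3% DMSO) for 10 or 60 min at room temperature in 50 mM Tris/0.05% TWEEN-20. The reaction then ran 10 min with 300 μM L-leucine and 250 μM alpha-ketoglutaric acid, was acid-quenched, and glutamate was read by luminescence. IC50 came from a 4-parameter fit, normalized to 10 μM VS558CSA inhibition.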

The next assay concerns the target T2, BCAT2 (Homo sapiens, UniProt O15382).
T2 sequence (O15382 28-392): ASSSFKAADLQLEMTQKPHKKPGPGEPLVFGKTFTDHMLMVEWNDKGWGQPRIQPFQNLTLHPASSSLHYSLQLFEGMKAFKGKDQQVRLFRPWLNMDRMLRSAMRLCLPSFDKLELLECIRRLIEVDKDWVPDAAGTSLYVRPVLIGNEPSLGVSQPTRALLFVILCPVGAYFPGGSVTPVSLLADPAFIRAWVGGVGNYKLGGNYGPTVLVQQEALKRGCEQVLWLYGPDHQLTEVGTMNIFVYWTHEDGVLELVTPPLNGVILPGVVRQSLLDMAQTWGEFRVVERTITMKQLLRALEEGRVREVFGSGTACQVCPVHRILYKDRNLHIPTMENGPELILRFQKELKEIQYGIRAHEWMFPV
In words: BCAT2 enzyme inhibition (human). It is filed as biochemical. The method in brief: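 Cell-free coupled fluorescent assay: human BCATm converts branched-chain amino acids and α-ketoglutarate to L-glutamate, which L-glutamate oxidase and HRP link to resorufin formation from Amplex Red; activity taken as reduced glutamate signal.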

From patent US20220274967A1, “BCAT MODULATION” (Icagen, LLC, priority 2019, published 2022) come the findings set out here.

As to `CNC(=O)c1ccc2c(c1)nc(-c1ccccc1C#N)n2[C@H]1CCC[C@@H](NC(=O)c2ccc(C#N)s2)C1` [Compound 138], the IC50 (usually the concentration needed to halve the response being measured) is 500 to 1000 nM at BCAT1 and under 100 nM against BCAT2.
On the same counts, the results for `CNC(=O)c1ccc2c(c1)nc(-c1ccccc1C=O)n2[C@H]1CCC[C@@H](NC(=O)c2ccc(Br)s2)C1` [Compound 161] are 100 to 500 nM and under 100 nM.
On the same counts, the results for `CNC(=O)c1ccc2c(c1)nc(-c1ccccc1C)n2[C@H]1CCC[C@@H](NC(=O)c2ccc(Br)s2)C1` [Compound 135] are at least 1000 nM and under 100 nM.
For `CNC(=O)c1ccc2c(c1)nc(-c1ccccc1F)n2[C@H]1CCC[C@@H](NC(=O)c2ccc(Br)s2)C1` [Compound 145], the IC50 is 100 to 500 nM at BCAT1 and under 100 nM against BCAT2.
In the case of `CNC(=O)c1cc2nc(-c3ccccc3F)n([C@H]3CCC[C@@H](NC(=O)c4ccc(Br)s4)C3)c2cc1F` [Compound 207], the IC50 at BCAT1 and on BCAT2 was under 100 nM throughout.
For the molecule `CNC(=O)c1ccc2c(c1)nc(-c1ccccc1C#N)n2[C@H]1CCC[C@@H](NC(=O)c2ccc(Br)s2)C1` [Compound 136], the IC50 at BCAT1 is 100 to 500 nM; against BCAT2 it was under 100 nM.
Consider `COC(=O)c1cc2nc(-c3ccccn3)n([C@@H]3CCC[C@H](NC(=O)c4ccc(Br)s4)C3)c2cn1` [Compound 291], for which the figures for the IC50 against BCAT1 and against BCAT2 were 100 to 500 nM and under 100 nM, respectively.
Consider `CNC(=O)c1ccc2c(c1)nc(-c1cccc(F)c1O)n2[C@H]1CCC[C@@H](NC(=O)c2ccc(Br)s2)C1` [Compound 163], for which the half-inhibitory concentration (IC50) against BCAT1 is at least 1000 nM; at BCAT2, under 100 nM.
As to `COC(=O)c1ccc2c(c1)nc(-c1ccccn1)n2[C@@H]1CCC[C@H](NC(=O)c2ccc(Br)s2)C1` [Compound 109], the IC50 at BCAT1 was at least 1000 nM; against BCAT2, 100 to 500 nM.
In the case of `C#Cc1ccccc1-c1nc2cc(C(=O)NC)ccc2n1[C@H]1CCC[C@@H](NC(=O)c2ccc(Br)s2)C1` [Compound 151], the results for the IC50 against BCAT1 and against BCAT2 were 500 to 1000 nM and under 100 nM, respectively.
On to `CNC(=O)c1cc2nc(-c3ccccc3C#N)n([C@H]3CCC[C@@H](NC(=O)c4ccc(Br)s4)C3)c2cc1F` [Compound 157], for which the IC50 against BCAT1 and on BCAT2 was under 100 nM each time.
Take `CNC(=O)c1ccc2c(c1)nc(-c1ccccc1C)n2[C@H]1CCC[C@@H](NC(=O)c2ccc(C#N)s2)C1` [Compound 134]: the IC50 on BCAT1 was at least 1000 nM; against BCAT2, under 100 nM.
Turning to `CNC(=O)c1cc2nc(-c3ccccn3)n([C@H]3CCC[C@@H](NC(=O)c4ccc(Br)s4)C3)c2cn1` [Compound 292], the IC50 on BCAT1 is 100 to 500 nM; at BCAT2 it was under 100 nM.
The matching figures for `CNC(=O)c1ccc2c(c1)nc(-c1c(O)cccc1F)n2[C@H]1CCC[C@@H](NC(=O)c2ccc(Br)s2)C1` [Compound 184]: 100 to 500 nM and under 100 nM.
On to `CNC(=O)c1ccc2c(c1)nc(-c1ccccc1C#N)n2[C@H]1CCC[C@@H](NC(=O)c2ccc(Br)s2)C1` [Compound 137], for which the IC50 at BCAT1 and on BCAT2 was under 100 nM throughout.
`CNC(=O)c1ccc2c(c1)nc(-c1ccccc1C#N)n2[C@H]1CCC[C@@H](NC(=O)c2ccc(C#N)s2)C1` [Compound 139]: the figures for the IC50 on BCAT1 and against BCAT2 were 100 to 500 nM and under 100 nM, respectively.
Consider `CNC(=O)c1ccc2c(c1)nc(-c1ccccn1)n2[C@@H]1CCC[C@H](NC(=O)c2ccc(C#N)s2)C1` [Compound 112], for which the IC50 against BCAT1 is at least 1000 nM; at BCAT2, 100 to 500 nM.
Regarding `CNC(=O)c1cc2nc(-c3ccccn3)n([C@H]3CCC[C@@H](NC(=O)c4ccc(Br)s4)C3)c2cc1F` [Compound 155], the IC50 at BCAT1 was 100 to 500 nM; against BCAT2, under 100 nM.
On the same counts, the results for `CNC(=O)c1ccc2c(c1)nc(-c1cccc(F)c1)n2[C@H]1CCC[C@@H](NC(=O)c2ccc(Br)s2)C1` [Compound 154] are at least 1000 nM and under 100 nM.
On to `CNC(=O)c1cc2nc(-c3ccccc3C)n([C@H]3CCC[C@@H](NC(=O)c4ccc(Br)s4)C3)c2cc1F` [Compound 208], for which the concentration for half-maximal inhibition (IC50) against BCAT1 was 100 to 500 nM; at BCAT2, under 100 nM.
